Data as given in patent US10351552B2, “Bicyclic antiparasitic compounds” (MediSynergies, LLC, priority 2017, dated 2019).

Tested on: T. brucei brucei clone 427-221a (bloodstream forms)
Experiment: T. brucei brucei growth inhibition assay
Assay type: cell-based
Settings: Trypanosoma brucei, 40 hours at 37° C., CellTiter-Glo ATP-bioluminescence
Procedure: The growth inhibition assay for T. brucei brucei was conducted as described previously by Z. B. Mackey, et al (Kenny K. H. Ang, Joseline Ratnam, Jiri Gut, Jennifer Legac, Elizabeth Hansell, Zachary B. Mackey, Katarzyna M. Skrzypczynska, Anjan Debnath, Juan C. Engel, Philip J. Rosenthal, James H. McKerrow, Michelle R. Arkin, Adam R. Renslo (2011) “Mining a Cathepsin Inhibitor Library for New Antiparasitic Drug Leads”, PLoS Neglected Tropical Diseases, 5(5):e1023). Bloodstream forms of the monomorphic T. brucei brucei clone 427-221a were grown in complete HMI-9 medium containing 10% FBS, 10% Serum Plus medium (Sigma Inc., St. Louis, Mo., USA), 50 U/mL penicillin and […] (Invitrogen) at 37° C. under a humidified atmosphere and 5% CO2. Inhibitor stocks were prepared in 100% DMSO and screened at […] for percent inhibition values or serially diluted from […] in 10% DMSO for IC50 determinations. […] of diluted parasites ([…]) in sterile Greiner 96-well flat white opaque culture plates such that the final DMSO concentration was 0.5%. The 0% inhibition control wells contained 0.5% DMSO while 100% inhibition control wells contained 50 mM thimerosal (Sigma). After compound addition, plates were incubated for 40 hours at 37° C. At the end of the incubation period, […] of CellTiter-Glo™ reagent (Promega Inc., Madison, Wis., USA) was added to each well and plates were placed on an orbital shaker at room temperature for 2 min to induce lysis. After an additional 10 min of incubation without shaking to stabilize the signal, the ATP-bioluminescence of each well was determined using an Analyst HT plate reader (Molecular Devices, Sunnyvale, Calif., USA). Raw values were converted to log 10 and percentage inhibition calculated relative to the controls. IC50 curve fittings were performed with Prism 4 software as above. Pentamidine was used as a comparator in the assay.

SMILES	IC50
CN(C)CCCC1(c2ccc(F)cc2)OCc2cc(-c3cncc4ccccc34)ccc21 (stereo not shown) [Example 7, 3-[1-(4-fluorophenyl)]-[5-(isoquinolin-4-yl)-1,3-dihydro-2-benzofuran-1-yl]-N,N-dimethylpropan-1-amine]	1000 nM
Cc1ccc2oc(-c3ccc4c(c3)COC4(CCCN(C)C)c3ccc(F)cc3)nc2c1 (stereo not shown) [Example 8, 3-[1-(4-fluorophenyl)-5-(5-methyl-1,3-benzoxazol-2-yl)-1,3-dihydro-2-benzofuran-1-yl]-N,N-dimethylpropan-1-amine]	110 nM
CN(C)CCCC1(c2ccc(F)cc2)OCc2cc(-c3cccc4[nH]ccc34)ccc21 (stereo not shown) [Example 1, 3-[1-(4-fluorophenyl)-5-(1H-indol-4-yl)-1,3-dihydro-2-benzofuran-1-yl]-N,N-dimethylpropan-1-amine]	1500 nM

Continued, values first:

IC50	SMILES
410 nM	CN(C)CCCC1(c2ccc(F)cc2)OCc2cc(-c3ccc4ocnc4c3)ccc21 (stereo not shown) [Example 2, 3-[1-(4-flurophenyl)-5-(1,3-benzoxazol-5-yl)-1,3-dihydro-2-benzofuran-1-yl]-N,N-dimethylpropan-1-amine]
510 nM	CN(C)CCCC1(c2ccc(F)cc2)OCc2cc(-c3cc4ccccc4s3)ccc21 (stereo not shown) [Example 4]
3000 nM	CN(C)CCCC1(c2ccc(F)cc2)OCc2cc(-c3cnc4ccccc4c3)ccc21 (stereo not shown) [Example 6, 3-[1-(4-fluorophenyl)]-[5-(quinolin-3-yl)-1,3-dihydro-2-benzofuran-1-yl]-N,N-dimethylpropan-1-amine]
1200 nM	CN(C)CCCC1(c2ccc(F)cc2)OCc2cc(-c3ccc4scnc4c3)ccc21 (stereo not shown) [Example 3, 3-[1-(4-fluorophenyl)-5-(1,3-benzothiazol-5-yl)-1,3-dihydro-2-benzofuran-1-yl]-N,N-dimethylpropan-1-amine]
